Experiments:
[1] = biological target: T1, Coelenterazine h 2-monooxygenase (Renilla reniformis, UniProt P27652)
T1 sequence (P27652 whole entry): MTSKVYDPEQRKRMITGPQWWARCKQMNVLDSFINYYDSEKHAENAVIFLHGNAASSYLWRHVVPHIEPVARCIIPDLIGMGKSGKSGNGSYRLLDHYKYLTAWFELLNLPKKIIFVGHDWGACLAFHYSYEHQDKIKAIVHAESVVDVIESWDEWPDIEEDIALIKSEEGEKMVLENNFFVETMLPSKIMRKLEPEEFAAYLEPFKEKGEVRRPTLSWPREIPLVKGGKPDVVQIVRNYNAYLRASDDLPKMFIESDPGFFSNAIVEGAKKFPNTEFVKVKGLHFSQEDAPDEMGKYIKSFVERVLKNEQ
Description: GSK_PKIS: Inhibition of Sea Pansy Luciferase (Data from PubChem: AID 652015) [NIH NCATS]

[2] = biological target: Luciferin 4-monooxygenase (Photinus pyralis, UniProt P08659)
Chain of Luciferin 4-monooxygenase (P08659 whole entry): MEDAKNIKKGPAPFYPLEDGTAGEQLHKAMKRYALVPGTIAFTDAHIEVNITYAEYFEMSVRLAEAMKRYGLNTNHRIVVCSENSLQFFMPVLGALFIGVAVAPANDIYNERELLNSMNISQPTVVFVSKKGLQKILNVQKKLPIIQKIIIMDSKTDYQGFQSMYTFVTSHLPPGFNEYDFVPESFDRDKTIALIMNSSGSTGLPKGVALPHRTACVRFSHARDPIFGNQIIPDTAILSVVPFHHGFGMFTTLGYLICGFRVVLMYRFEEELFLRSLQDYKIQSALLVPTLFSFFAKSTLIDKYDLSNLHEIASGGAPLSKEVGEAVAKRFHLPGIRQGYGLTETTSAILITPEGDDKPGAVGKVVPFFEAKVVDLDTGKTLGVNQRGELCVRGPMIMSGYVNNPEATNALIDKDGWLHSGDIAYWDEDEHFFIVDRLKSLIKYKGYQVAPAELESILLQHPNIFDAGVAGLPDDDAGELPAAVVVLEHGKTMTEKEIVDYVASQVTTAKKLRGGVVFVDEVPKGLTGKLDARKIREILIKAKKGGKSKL
Description: GSK_PKIS: Inhibition of Firefly Luciferase (Data from PubChem: AID 652016) [NIH NCATS]

AC50 ([1]; read-out: AC50) [µM] | AC50 ([2]; read-out: AC50) [µM] | Compound | AC50 [2] | AC50 [1]
36.6 | – | COc1cc2c(cc1Nc1nc(Nc3cccc(F)c3C(N)=O)c3cc[nH]c3n1)N(C(=O)CN1CCN(C(C)C)CC1)CC2 [GSK-1751853A] | Phenotype: Inactive; Curve_Description: None | –
– | – | COc1ccc(-c2nn3ncccc3c2-c2ccnc(Nc3ccc(F)c(F)c3)n2)cc1 [GW827396X] | Phenotype: Inactive; Curve_Description: None | Phenotype: Inactive; Curve_Description: None
– | – | CC(=O)NCc1cccc(C#Cc2cncnc2Nc2ccc(OCc3cccc(F)c3)c(Cl)c2)c1 [GW807930X] | Phenotype: Activator; Curve_Description: None | Phenotype: Inactive; Curve_Description: None
– | – | COc1cc(C)c(N(C)C(=O)CN(C)C)cc1Nc1nc(Nc2cccc(F)c2C(N)=O)c2cc[nH]c2n1 [GSK-2219385A] | Phenotype: Inactive; Curve_Description: None | Phenotype: Inactive; Curve_Description: None
– | 29.1 | COc1c(C(N)=O)cc(-c2ccc(Cl)cc2)cc1-c1ccc(S(N)(=O)=O)cc1 [GSK-711701A] | – | Phenotype: Inactive; Curve_Description: None
– | – | CCn1c(-c2nonc2N)nc2ccncc21 | Phenotype: Inactive; Curve_Description: None | Phenotype: Inactive; Curve_Description: None
– | – | Fc1ccc(-c2ncn(CCCN3CCOCC3)c2-c2ccncc2)cc1 [SB-210313] | Phenotype: Inactive; Curve_Description: None | Phenotype: Activator; Curve_Description: None
– | 0.58 | CN(c1ccc(NC(=O)Nc2c(Cl)cccc2Cl)cc1)c1ccnc(Nc2cccc(CS(C)(=O)=O)c2)n1 [GW809897X] | – | Phenotype: Inactive; Curve_Description: None
– | – | CS(=O)(=O)CCNCc1ccc(-c2ccc3ncnc(Nc4ccc(OCc5cccc(C(F)(F)F)c5)cc4)c3c2)o1.Cl [GW567808A] | Phenotype: Inactive; Curve_Description: None | Phenotype: Activator; Curve_Description: None
– | 18.3 | Cc1ccc(NC(=O)CC2CC2)cc1-c1ccc(C(=O)NCC2CC2)cc1 [GW796920X] | – | Phenotype: Inactive; Curve_Description: None
– | – | Cc1ccc(C(=O)NC2CCCCC2)cc1-c1ccc(C(=O)NCC2CC2)cc1 [GW782907X] | Phenotype: Inactive; Curve_Description: None | Phenotype: Inactive; Curve_Description: None
– | – | N#Cc1c(NC(=O)CN2CCOCC2)sc2c1CCCC2.O=C(O)C(=O)O | Phenotype: Inactive; Curve_Description: None | Phenotype: Inactive; Curve_Description: None
– | 20.6 | O=C(O[C@H]1CN[C@H](C#Cc2cc3ncnc(Nc4ccc(OCc5cccc(F)c5)c(Cl)c4)c3s2)C1)N1CCOCC1 [GW869810X] | – | Phenotype: Inactive; Curve_Description: None
– | – | CNC(=O)c1sc(-n2cnc3cc(OC)c(OC)cc32)cc1OCc1ccccc1C(F)(F)F [GSK-1030061A] | Phenotype: Inactive; Curve_Description: None | Phenotype: Inactive; Curve_Description: None
25.9 | – | NC(=O)c1sc(-n2cnc3ccccc32)cc1OCc1ccccc1Br [GSK-1023156A] | Phenotype: Inactive; Curve_Description: None | –
– | 0.58 | Cc1cccc(Nc2ncc(-c3ccccc3)o2)c1 [GW632046X] | – | Phenotype: Inactive; Curve_Description: None
32.6 | – | Cc1cc(-c2ccccn2)cc(C)c1/C=C/c1cncc(-c2nn[nH]n2)c1.Cl [GW459057A] | Phenotype: Inactive; Curve_Description: None | –
– | – | CCN1CCC(C(=O)Nc2n[nH]c3nnc(-c4cccc(F)c4F)cc23)CC1.Cl | Phenotype: Inactive; Curve_Description: None | Phenotype: Inactive; Curve_Description: None
32.6 | – | CN1CCC(C(=O)Nc2n[nH]c3nc(-c4ccc(O)cc4)c(Br)cc23)CC1 | Phenotype: Inactive; Curve_Description: None | –
41.1 | 18.3 | OCc1ccc(-c2nc(-c3ccccn3)c(-c3ccc4c(c3)OCO4)[nH]2)cc1 | – | –
– | – | COc1cc2ncn(-c3cc(OCc4ccccc4C(F)(F)F)c(C(N)=O)s3)c2cc1OC [GW843682X] | Phenotype: Inactive; Curve_Description: None | Phenotype: Inactive; Curve_Description: None

AC50 ([1]; read-out: AC50) [µM] | AC50 ([2]; read-out: AC50) [µM] | Compound | AC50 [2] | AC50 [1]
– | – | COc1cc2ncn(-c3cc(OCc4ccccc4C(F)(F)F)c(C(C)=O)s3)c2cc1OC [GSK-1030059A] | Phenotype: Inactive; Curve_Description: None | Phenotype: Inactive; Curve_Description: None
– | – | COc1ccc(COc2ccc(Cc3cnc(N)nc3N)cc2OC)cc1 [GW632580X] | Phenotype: Inactive; Curve_Description: None | Phenotype: Inactive; Curve_Description: None
– | 20.6 | CS(=O)(=O)CCNCc1ccc(-c2ccc3ncnc(Nc4ccc(OCc5ccccc5)c(Cl)c4)c3c2)o1.Cl [GW574783B] | – | Phenotype: Inactive; Curve_Description: None
– | – | CC(=O)Nc1cccc(C#Cc2cncnc2Nc2ccc(OCc3cccc(F)c3)c(Cl)c2)n1 [GW794726X] | Phenotype: Inactive; Curve_Description: None | Phenotype: Inactive; Curve_Description: None
36.6 | 41.1 | NS(=O)(=O)c1ccc(N/N=C2\C(=O)Nc3ccc(Cl)cc32)cc1 [GW280670X] | – | –
– | – | CNC(=O)c1ncccc1Nc1nc(Nc2cc3c(cc2OC)CCCN3C(=O)CN(C)C)nc2[nH]ccc12 [GSK-2220400A] | Phenotype: Inactive; Curve_Description: None | Phenotype: Activator; Curve_Description: None
– | 4.61 | c1cc(-c2cnn3nc(N4CCOCC4)ccc23)nc(NC2CC2)n1 [GW708336X] | – | Phenotype: Inactive; Curve_Description: None
– | – | COc1cccc(Nc2nccc(-c3cnn4ncccc34)n2)c1 [PYRAZOLOPYRIDAZINE 1] | Phenotype: Inactive; Curve_Description: None | Phenotype: Inactive; Curve_Description: None
23.1 | – | CN1CCN(CCCNc2nc3ccc(Oc4ccc(NC(=O)Nc5cc(C(F)(F)F)ccc5F)cc4)cc3[nH]2)CC1.Cl [GW700494A] | Phenotype: Inactive; Curve_Description: None | –
16.3 | 18.3 | O=C1Nc2ccc(C(=O)c3ccco3)cc2C1=Cc1cc(Cl)c(O)c(Cl)c1 [GW406108X] | – | –
– | – | CCOc1nccc2c1nc(-c1nonc1N)n2CC | Phenotype: Inactive; Curve_Description: None | Phenotype: Inactive; Curve_Description: None
– | 6.51 | COc1cccc(-n2ncc3c(N/N=C/c4ccncc4)ncnc32)c1 [GW784752X] | – | Phenotype: Activator; Curve_Description: None
– | 0.819 | N#Cc1c(NC(=O)c2ccccc2F)sc2c1CCCC2 [GW572738X] | – | Phenotype: Inactive; Curve_Description: None
3.66 | – | COc1cc2ncn(-c3cc(O[C@H](C)c4ccccc4Cl)c(C(N)=O)s3)c2cc1OC [GSK-237701A] | Phenotype: Inactive; Curve_Description: None | –
– | 14.6 | CCOc1ccc2c(-c3ccnc(Nc4cc(OC)cc(C(F)(F)F)c4)n3)cnn2n1 [GW807982X] | – | Phenotype: Activator; Curve_Description: None
– | 14.6 | COC(=O)Nc1nc2cc(Oc3ccc(NC(=O)Nc4ccccc4)cc3)ccc2[nH]1.Cl [GW694590A] | – | Phenotype: Inactive; Curve_Description: None
– | – | Fc1cccc(COc2ccc(Nc3ncnc4sc(-c5cccs5)cc34)cc2Cl)c1 [GW684626B] | Phenotype: Inactive; Curve_Description: None | Phenotype: Inactive; Curve_Description: None
– | – | O=C(O)C(F)(F)F.O=C(O[C@H]1CN[C@H](C#Cc2cc3ncnc(Nc4ccc5c(ccn5Cc5cc(F)ccc5F)c4)c3s2)C1)N1CCOCC1 [GSK-259178A] | Phenotype: Inactive; Curve_Description: None | Phenotype: Inactive; Curve_Description: None
– | 20.6 | CC(C)c1ccc(Nc2nccc(-c3cnn4ncccc34)n2)cc1 [GW805758X] | – | Phenotype: Inactive; Curve_Description: None
– | 36.6 | CCc1cccc(CC)c1/C=C/c1cncc(C(=O)NC)c1 [GW450241X] | – | Phenotype: Inactive; Curve_Description: None

Compound | AC50 ([1]; read-out: AC50) [µM] | AC50 ([2]; read-out: AC50) [µM] | AC50 [2] | AC50 [1]
Cl.[O-][S+]1CCN(Cc2ccc(-c3ccc4ncnc(Nc5ccc(OCc6ccccc6)c(F)c5)c4c3)o2)CC1 [GW576924A] | – | 16.3 | – | Phenotype: Inactive; Curve_Description: None
Cc1ccc(NC(=O)c2ccnc(N3CCCC3)c2)cc1-c1ccc(C(=O)NCC2CC2)cc1 [GW769076X] | 29.1 | – | Phenotype: Inactive; Curve_Description: None | –
NS(=O)(=O)c1ccc(-c2cc3ccncc3cc2OCc2ccccc2)cc1 [GSK-953913A] | 5.8 | – | Phenotype: Inactive; Curve_Description: None | –
CCn1c(-c2nonc2N)nc2c(C#CCN)ncc(OCCCN)c21.O=C(O)C(F)(F)F [GSK-561866B] | 23.1 | – | Phenotype: Inactive; Curve_Description: None | –
Fc1ccc(-c2ncn(C3CCNCC3)c2-c2ccnc(Oc3ccc(Oc4ccccc4)cc3)n2)cc1 | 20.6 | – | Phenotype: Inactive; Curve_Description: None | –
CCCN(CCS(C)(=O)=O)Cc1ccc(-c2ccc3ncnc(Nc4ccc(OCc5cccc(F)c5)c(Cl)c4)c3c2)o1.Cl [GW621823A] | – | 20.6 | – | Phenotype: Inactive; Curve_Description: None
C#Cc1cccc(Nc2ncnc3ccc(OCCCCNCCS(C)(=O)=O)cc23)c1 [GW680191X] | 29.1 | – | Phenotype: Inactive; Curve_Description: None | –
NS(=O)(=O)c1cccc(-c2ccc3c(NC(=O)C4CC4)n[nH]c3c2)c1 | 36.6 | 20.6 | – | –
Cc1ccc(NC(=O)c2ccoc2)cc1-c1ccc(C(=O)NCC2CC2)cc1 [GW743024X] | – | 41.1 | – | Phenotype: Inactive; Curve_Description: None
